Here are results for eight compounds from patent publication US20230271923A1, “IMAGING AND TARGETING PROGRAMMED DEATH LIGAND-1 (PD-LI) EXPRESSION” (The Johns Hopkins University, priority 2020, published 2023).

Where a SMILES comes first, the peptide text is derived from it. Bridges are numbered along the chain shown (N, C = ends). [ ]: non-standard residue; d: D form. The star is where a group is joined. Trp(1-CH2COOH) = N[C@@H](Cc1cn(CC(=O)O)c2ccccc12)C(=O)O; X1 = O=C(O)CN1CCN(CC(=O)O)CCN(Cc2ccc(NC(=S)*)cc2)CC1; Hyp = O=C(O)[C@@H]1C[C@@H](O)CN1; NMeNle = CCCC[C@H](NC)C(=O)O; NMeA = CN[C@@H](C)C(=O)O

The target in one series is PD-L1 binding to PD-1 (Homo sapiens, UniProt Q9NZQ7). Nature of the series: competitive PD-1:PD-L1 inhibition assay (HTRF PD1/PD-L1 binding assay). How it is done: To modify DK221 for radiolabeling, a bifunctional chelator, e.g., NCS-MP-NODA, was conjugated to the free lysine amine to generate DK222. The NODA chelator was used for radiofluorination to produce [^18F]DK222, as well as a non-radioactive analog [^19F]DK222. (FIG. 1A, FIG. 10 and FIG. 11). A competitive PD-1:PD-L1 inhibition assay was performed to characterize binding affinity of the peptide analogs to PD-L1. […] [^18F]Fluoride-radiolabeling of peptides and small molecules by aluminum fluoride (AlF) method is gaining attention due to the ease of synthesis and the potential to retain the hydrophilicity of the binding moiety. McBride et al., 2010; Kumar et al., 2018. The radiolabeled analog, [^18F]DK222 was synthesized by AlF method in good radiochemical yields (34.85±1.7%, n=62), in vitro stability, and moderate specific activity of 284±56 mCi/μmol (10.51±2.07 GBq/μmol, n=25). […] (FIG. 12, FIG. 13 and FIG. 14).
Sequence of PD-L1 binding to PD-1 (Q9NZQ7 19-238 limits assumed): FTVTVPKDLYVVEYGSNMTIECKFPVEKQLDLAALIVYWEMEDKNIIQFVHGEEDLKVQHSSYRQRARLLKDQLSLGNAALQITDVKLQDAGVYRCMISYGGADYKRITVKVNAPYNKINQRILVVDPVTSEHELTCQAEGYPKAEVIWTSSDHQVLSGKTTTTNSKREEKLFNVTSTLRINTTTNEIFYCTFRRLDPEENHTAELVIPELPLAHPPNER

For another series, the system named is hPD-L1/CHO xenografts. The note with it: in vivo.
The subject of another series is LOX-IMVI tumors. In words: aPD-L1 mAb dosing studies, accessible PD-L1 levels by [^18F]DK222 uptake. Format: in vivo, NSG mice. The following applies: for reduction in [^18F]DK222 uptake in tumors vs vehicle: 24 hour before tracer, ex vivo. How it is done:
To confirm the in vitro observations in vivo, NSG mice bearing LOX-IMVI tumors were treated with a single dose of 0.3 or 20 mg/kg of Atezolizumab, administered intravenously as a bolus, 24 hour before [^18F]DK222 injection (FIG. 5B, FIG. 5C and FIG. 5D). […] Importantly, there was a modest reduction in signal intensity when a low 0.3 mg/kg dose of Atezolizumab was used.
The aim of this experiment was to evaluate the potential of [^18F]DK222 to detect the heterogeneity in binding of different mAbs, thus proving in principle that it can be used to guide the choice between the multiple mAbs available for treatment. […] Separate groups of animals were injected with a single 1 mg/kg dose of (only) one of these mAbs, and after either 24 or 96 hours, each group was injected with [^18F]DK222, imaged, or sacrificed and the [^18F]DK222 signal was quantified (FIG. 6A). The difference in lower [^18F]DK222 signal, at 24 hours between any PD-L1 mAb vs Nivolumab constitutes the saturation binding of the PD-L1 mAb. On the other hand, the higher [^18F]DK222 signal at 96 hours versus that at 24 hours represents loss of the mAb from its binding site, making more PD-L1 accessible to [^18F]DK222. The experiment was repeated in two different tumor models: LOXIMVI and MDAMB231.
1.3.17 aPD-L1 mAb dosing studies. To determine the effect of antibody dose on accessible PD-L1 levels in the tumor, LOX-IMVI tumor-bearing mice were treated with a single intravenous bolus dose of Atezolizumab (0.3 or 20 mg/Kg) and 24 hours later mice were used for imaging (n=3-4) and biodistribution (n=6-8) studies.
Anti PD-1 antibody Nivolumab (1 mg/kg) and saline were used as controls. Mice treated for 24 h with therapeutic mAbs, or saline as a control, were injected with 200 μCi of [^18F]DK222 in 200 μL of saline intravenously, and PET images were acquired 1 hour after the injection of the radiotracer. Due to the many number of groups and mice involved, saline and Nivolumab-treated controls were included in every experiment, and data from multiple experiments were pooled. Study was repeated in MDAMB231 tumor-bearing mice with only biodistribution measurements.

In another series the target is PD-L1 (Homo sapiens, UniProt Q9NZQ7). The note with it: cited from earlier work.
Sequence of PD-L1 (Q9NZQ7 19-290): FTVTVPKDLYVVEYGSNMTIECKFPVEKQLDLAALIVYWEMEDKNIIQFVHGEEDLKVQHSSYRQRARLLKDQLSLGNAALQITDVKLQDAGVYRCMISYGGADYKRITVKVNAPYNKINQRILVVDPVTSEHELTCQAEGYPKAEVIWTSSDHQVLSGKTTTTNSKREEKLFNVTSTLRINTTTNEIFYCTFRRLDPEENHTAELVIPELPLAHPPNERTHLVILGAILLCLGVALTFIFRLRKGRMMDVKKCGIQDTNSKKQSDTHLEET
The conditions of series [1]: circulating half-life; cited from earlier work.
Series [2] deals with PD-L1 levels in melanoma cells. In words: effect of IFNγ treatment on PD-L1 levels by flow cytometry. Format: cell-based, human. The method, then:
First, the effect of adaptive immune response on the PD-L1 expression in melanoma cells was investigated by assessing changes in PD-L1 levels induced by IFNγ treatment. LOX-IMVI, A375, and MeWO melanoma cells treated with IFNγ were analyzed for changes in PD-L1 levels.
1.3.8 Detection of PD-L1 expression by flow cytometry. Cells were evaluated for PD-L1 surface expression by direct staining of 2×10^5 cells in 100 μL PBS with Cy5-Atezolizumab, for 30 min at 4° C. Cy5-Atezolizumab was prepared as described previously. Kumar et al., 2019. Cells were then washed and analyzed for mean fluorescence intensity (MFI) by flow cytometry. Adherent cells were detached using enzyme-free cell dissociation buffer (Thermo Fisher Scientific, Waltham, Mass.). 1.3.9 In vitro binding assays with [^18F]DK222. In vitro binding of [^18F]DK222 to hPD-L1 MDAMB231, MeWo, A375, Sum149, and CHO cells was determined by incubating 1×10^6 cells with approximately […] of [^18F]DK222 in the presence, or absence, of 1 μM of DK222 or 60 nM mAbs for 30 min at 4° C. After incubation, cells were washed three times with ice cold PBS containing 0.1% Tween20 and counted on an automated gamma counter (1282 Compugamma CS, Pharmacia/LKBNuclear, Inc., Gaithersburg, Md.). […] All cell radioactivity uptake studies were performed in quadruplicate for each cell line and repeated three times.

A further series deals with A375 melanoma xenografts. Nature of the series: aPD-1 mAb dosing study, [^18F]DK222 uptake in A375 tumors. Format: in vivo. The note with it: huPBMC mice, single dose aPD-1 mAb 12 mg/kg, one week. The method, then: A humanized mouse model was used to quantify the differences in tumor PD-L1 levels as a measure of adaptive immune response to treatment with different aPD-1 mAbs. NSG mice humanized with PBMCs (huPBMC) bearing A375 melanoma xenografts were treated with a single dose of aPD-1 mAbs (12 mg/kg). Following one week of treatment, tumor PD-L1 levels were measured by [^18F]DK222-PET and by ex vivo counting 24 hours later (FIG. 4A). As controls, tumor-bearing huPBMC mice treated with saline and NSG mice treated with Pembrolizumab and Nivolumab were included.
1.3.14 aPD-1 mAb dosing studies. huPBMC mice acquired from JAX labs were implanted subcutaneously with 2×10^6 A375 cells in the rostral end. Seven days after cell inoculation (average tumor volume=80±15 mm^3), mice were randomized and treated with a single 12 mg/kg dose of Nivolumab or Pembrolizumab injected intravenously (n=9/group). huPBMC mice treated with saline (n=4-5/group). or NSG mice treated with 12 mg/kg dose of Nivolumab or Pembrolizumab were used as controls. Seven days following treatment, [^18F]DK222 PET scans were acquired on at least 3-5 mice per group. […]
1.3.15 Flow cytometry analysis. […] Cells were counted and 1×10^6 cells were resuspended in 100 μL Live/Dead aqua solution (ThermoFisher #L34965, 2 μL reconstituted with 2 mL PBS) in a 96 well plate. […]

For the compound `CCCC[C@H]1C(=O)N(C)[C@@H](CCCC)C(=O)N[C@@H](CCCCNC(=S)Nc2ccc(CN3CCN(CC(=O)O)CCN(CC(=O)O)CC3)cc2)C(=O)N[C@H](C(=O)NCC(N)=O)CSCC(=O)N[C@@H](Cc2ccc(O)cc2)C(=O)N(C)[C@@H](C)C(=O)N[C@@H](CC(N)=O)C(=O)N2CCC[C@H]2C(=O)N[C@@H](Cc2cnc[nH]2)C(=O)N[C@@H](CCC(=O)O)C(=O)N2C[C@H](O)C[C@H]2C(=O)N[C@@H](Cc2c[nH]c3ccccc23)C(=O)N[C@@H](CO)C(=O)N[C@@H](Cc2cn(CC(=O)O)c3ccccc23)C(=O)N1C` [DK222] ({CH2CO}-Y[NMeA]NPHE[Hyp]WS[Trp(1-CH2COOH)][NMeNle][NMeNle]K(X1)CG-NH2; thioether N-14), at PD-L1 binding to PD-1, the 50% inhibitory concentration (IC50) was found to be 28 nM. Moreover, the “inhibit PD1:PD-L1 interaction” value on PD-L1 binding to PD-1 (protein-based assay) is on record as “at nanomolar concentrations”.

Turning to `CCCC[C@H]1C(=O)N(C)[C@@H](CCCC)C(=O)N[C@@H](CCCCNC(=O)c2ccc([18F])nc2)C(=O)N[C@H](C(=O)NCC(N)=O)CSCC(=O)N[C@@H](Cc2ccc(O)cc2)C(=O)N(C)[C@@H](C)C(=O)N[C@@H](CC(N)=O)C(=O)N2CCC[C@H]2C(=O)N[C@@H](Cc2cnc[nH]2)C(=O)N[C@@H](CCC(=O)O)C(=O)N2C[C@H](O)C[C@H]2C(=O)N[C@@H](Cc2c[nH]c3ccccc23)C(=O)N[C@@H](CO)C(=O)N[C@@H](Cc2cn(CC(=O)O)c3ccccc23)C(=O)N1C` [[^18F]DK221-Py], the PET image contrast result in the series on hPD-L1/CHO xenografts is recorded as “poor image contrast”.

With Atezolizumab: aPD-L1 mAb, isotype IgG1κ, the “reduction in [^18F]DK222 uptake in tumors vs vehicle” value amounted to 32% in the series on LOX-IMVI tumors (0.3 mg/kg single i.v. dose) and 89% in the series on LOX-IMVI tumors (20 mg/kg single i.v. dose). The Kd with PD-L1 was 0.4 nM. Further, the t1/2 in series [1] is 27 days.

As for Avelumab: aPD-L1 mAb, IgG1λ, the t1/2 in series [1] is 6.1 days.

Regarding Durvalumab: aPD-L1 mAb, the “accessible PD-L1 levels reduced” value with LOX-IMVI tumors (1 mg/kg mAb, LOX-IMVI tumors, 24 h and 96 h) was at least 70%. Further, in the series with PD-L1, the Kd is 0.022 nM. Also, the t1/2 in series [1] is on record as 18 days.

Turning to “IFNγ: cytokine used to treat melanoma cells to induce PD-L1”, the entries for the “increase in PD-L1 levels” value in series [2] (A375 cells) and in series [2] (LOX-IMVI cells) were “four-fold” and “two”, respectively. Also, the “change in PD-L1 levels” value in series [2] (MeWo cells) is on record as “No differences”.

Consider “Nivolumab: aPD-1 mAb [reference compound]”, for which, in the series on A375 melanoma xenografts, the “increase in median [^18F]DK222 uptake compared to NSG mice” value is 148%. Besides, the “mean LOX-IMVI tumor [^18F]DK222 uptake” value in the series on LOX-IMVI tumors (1 mg/kg mAb, 24 hours) is recorded as “approximately 20 % ID/g”.

Turning to “Pembrolizumab: aPD-1 mAb [reference compound]”, the “increase in median [^18F]DK222 uptake compared to NSG mice” value with A375 melanoma xenografts is 85%.

One may read the IC50 as the concentration at which inhibition is half-maximal. A lower IC50 goes with inhibition by little substance. A word on the Kd: it is the equilibrium constant for the complex coming apart.
